Results: ChEMBL document CHEMBL1133916, “The discovery of anthranilic acid-based MMP inhibitors. Part 2: SAR of the 5-position and P1(1) groups” (Bioorg Med Chem Lett, 2001)

Tests used:
[1] = target: T1, Interstitial collagenase (Homo sapiens) (UniProt P03956); test: Inhibition of Matrix metalloprotease-1 at 1 uM
T1 sequence (whole entry): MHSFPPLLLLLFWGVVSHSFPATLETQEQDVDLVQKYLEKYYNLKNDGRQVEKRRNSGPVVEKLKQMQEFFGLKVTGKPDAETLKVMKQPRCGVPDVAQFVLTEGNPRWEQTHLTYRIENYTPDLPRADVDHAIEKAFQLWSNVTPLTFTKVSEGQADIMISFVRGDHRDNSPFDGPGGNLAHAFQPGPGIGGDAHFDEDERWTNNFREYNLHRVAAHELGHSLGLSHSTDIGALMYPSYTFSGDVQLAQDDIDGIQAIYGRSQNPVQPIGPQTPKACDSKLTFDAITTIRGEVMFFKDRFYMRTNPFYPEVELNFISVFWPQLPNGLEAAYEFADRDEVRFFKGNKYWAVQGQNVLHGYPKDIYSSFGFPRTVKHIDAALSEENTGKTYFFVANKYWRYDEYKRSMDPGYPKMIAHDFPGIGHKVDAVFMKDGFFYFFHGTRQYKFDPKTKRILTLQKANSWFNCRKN

[2] = target: T2, Matrix metalloproteinase-9 (Homo sapiens, UniProt P14780); test: In vitro ability to inhibit matrix metalloprotease-9.
[3] = species: Bos taurus; test: Percent inhibition of cartilage degradation at 1 uM in a bovine articular cartilage explant assay; assay type: functional; settings: Cartilage tissue
[4] = tested on: Rattus norvegicus; test: Percent inhibition of collagen degradation at an oral dose of 50 mg/kg/bid in an in vivo rat sponge-wrapped cartilage model; assay type: functional
[5] = target: T3, Disintegrin and metalloproteinase domain-containing protein 17 (Homo sapiens, UniProt P78536); test: Inhibition of TNF-alpha converting enzyme (TACE) at 1 uM
[6] = target: T1, Interstitial collagenase (Homo sapiens); test: Inhibition of Matrix metalloprotease-1 at 10 uM
[7] = target: T3, Disintegrin and metalloproteinase domain-containing protein 17; test: In vitro inhibition of TNF-alpha converting enzyme (TACE)
[8] = target: T4, Collagenase 3 (Homo sapiens, UniProt P45452)
[9] = target: T5, Interstitial collagenase (Homo sapiens, UniProt P03956); test: In vitro inhibition of Matrix metalloprotease-1
T5 sequence (P03956 whole entry): T1 sequence (whole entry)

[10] = target: T2, Matrix metalloproteinase-9; test: Inhibition of Matrix metalloprotease-9 at 1 uM
[11] = target: T4, Collagenase 3; test: Inhibition of matrix metalloprotease-13; settings: concentration not given here

T3 sequence (P78536 whole entry, the tested form may be a part): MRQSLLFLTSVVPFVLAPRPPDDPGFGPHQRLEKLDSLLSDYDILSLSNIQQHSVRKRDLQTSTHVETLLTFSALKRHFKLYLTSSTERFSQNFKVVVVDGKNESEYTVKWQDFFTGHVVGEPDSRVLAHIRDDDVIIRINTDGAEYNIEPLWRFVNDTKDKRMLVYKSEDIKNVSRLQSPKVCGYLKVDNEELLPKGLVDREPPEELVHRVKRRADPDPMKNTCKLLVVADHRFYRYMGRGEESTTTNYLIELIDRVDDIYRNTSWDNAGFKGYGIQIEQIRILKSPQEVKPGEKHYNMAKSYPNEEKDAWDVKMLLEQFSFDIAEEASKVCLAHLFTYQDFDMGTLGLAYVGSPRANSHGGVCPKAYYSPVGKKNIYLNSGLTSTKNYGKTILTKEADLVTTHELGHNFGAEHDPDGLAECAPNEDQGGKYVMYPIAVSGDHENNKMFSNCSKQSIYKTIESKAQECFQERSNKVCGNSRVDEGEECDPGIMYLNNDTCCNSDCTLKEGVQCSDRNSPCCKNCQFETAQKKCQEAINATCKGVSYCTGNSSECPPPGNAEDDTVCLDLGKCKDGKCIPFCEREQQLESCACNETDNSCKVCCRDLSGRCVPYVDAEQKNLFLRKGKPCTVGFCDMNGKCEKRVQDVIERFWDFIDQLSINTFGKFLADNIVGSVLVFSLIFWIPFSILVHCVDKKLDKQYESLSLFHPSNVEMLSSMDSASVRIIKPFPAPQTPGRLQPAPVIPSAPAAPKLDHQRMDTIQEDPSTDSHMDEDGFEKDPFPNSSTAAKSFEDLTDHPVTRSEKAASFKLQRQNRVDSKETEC
T2 sequence (P14780 whole entry): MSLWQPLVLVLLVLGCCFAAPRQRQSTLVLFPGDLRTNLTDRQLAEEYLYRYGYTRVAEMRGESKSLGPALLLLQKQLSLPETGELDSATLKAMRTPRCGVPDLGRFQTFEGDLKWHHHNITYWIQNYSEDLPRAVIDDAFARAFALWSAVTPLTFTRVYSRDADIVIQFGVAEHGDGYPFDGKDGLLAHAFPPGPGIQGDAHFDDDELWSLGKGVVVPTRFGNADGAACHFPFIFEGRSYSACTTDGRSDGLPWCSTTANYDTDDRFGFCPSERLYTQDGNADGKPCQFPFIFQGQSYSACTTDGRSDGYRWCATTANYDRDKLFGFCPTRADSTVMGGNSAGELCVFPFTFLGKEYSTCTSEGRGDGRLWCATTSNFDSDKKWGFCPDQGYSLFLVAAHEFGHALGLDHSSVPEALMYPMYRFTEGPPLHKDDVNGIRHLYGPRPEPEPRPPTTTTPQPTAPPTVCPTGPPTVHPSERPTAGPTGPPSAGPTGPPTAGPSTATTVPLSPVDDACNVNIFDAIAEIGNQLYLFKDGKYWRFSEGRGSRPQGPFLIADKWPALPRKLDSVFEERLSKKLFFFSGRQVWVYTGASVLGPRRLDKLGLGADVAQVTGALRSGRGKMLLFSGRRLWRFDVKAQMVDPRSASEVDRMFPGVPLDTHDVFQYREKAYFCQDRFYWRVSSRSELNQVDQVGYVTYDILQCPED

Structure (SMILES) | IC50 [2] | IC50 [7] | IC50 [8] | IC50 [9] | further results
CCCCOc1ccc(S(=O)(=O)N(Cc2ccccc2)c2c(C)cc(C)cc2C(=O)NO)cc1 | – | – | – | – | inhibition [1]: 33%
Cc1cc(Br)cc(C(=O)NO)c1N(C)S(=O)(=O)c1ccc(-c2ccc(OCc3ccccc3)cc2)cc1 | 189 nM | 57 nM | 163 nM | – | inhibition [6]: 57%
CCN(CC)Cc1cc(C)c(N(Cc2ccccc2)S(=O)(=O)c2ccc(OC)cc2)c(C(=O)NO)c1 | – | – | – | – | inhibition [5]: 44%
Cc1cc(C)c(N(C)S(=O)(=O)c2ccc(Sc3ccccc3)cc2)c(C(=O)NO)c1 | 8 nM | 727 nM | 3 nM | 1310 nM | –
Cc1cc(C)c(N(Cc2ccccc2)S(=O)(=O)c2ccc(OCc3ccccc3)cc2)c(C(=O)NO)c1 | – | – | – | – | inhibition [1]: 25%
Cc1cc(Br)cc(C(=O)NO)c1N(C)S(=O)(=O)c1ccc(-c2ccc(OCc3cccnc3)cc2)cc1 | – | 28 nM | – | – | inhibition [10]: 28%; inhibition [6]: 42%; inhibition [11]: 48%
COc1ccc(S(=O)(=O)N(Cc2cccnc2)[C@@H](C(=O)NO)C(C)C)cc1 [CGS-27023A] | – | 231 nM | – | – | inhibition at 1 µM [3]: 70%; inhibition in vivo at 50 mg/kg [4]: 51%
Cc1cc(Br)cc(C(=O)NO)c1N(C)S(=O)(=O)c1ccc(-c2ccc(OCc3ccsc3)cc2)cc1 | 232 nM | 56 nM | 142 nM | 4640 nM | –
COc1ccc(-c2ccc(S(=O)(=O)N(Cc3cccnc3)c3c(C)cccc3C(=O)NO)cc2)cc1 | 152 nM | – | 18 nM | 2270 nM | inhibition [5]: 4%
COc1ccc(S(=O)(=O)N(Cc2cccnc2)c2c(C)cc(-c3ccccc3)cc2C(=O)NO)cc1 | – | – | 4 nM | – | inhibition at 1 µM [3]: 70%
COc1ccc(S(=O)(=O)N(Cc2cccnc2)c2c(C)cc(-c3ccc4ccccc4c3)cc2C(=O)NO)cc1 | 2 nM | 194 nM | 1 nM | 745 nM | inhibition at 1 µM [3]: 83%
Cc1cc(Br)cc(C(=O)NO)c1N(C)S(=O)(=O)c1ccc(Oc2ccc(C(C)(C)C)cc2)cc1 | 125 nM | – | 44 nM | – | inhibition [1]: 25%; inhibition [5]: 19%
Cc1cccc(C(=O)NO)c1N(Cc1cccnc1)S(=O)(=O)c1ccc(-c2ccc3c(c2)OCO3)cc1 | – | – | – | – | inhibition [10]: 43%; inhibition [6]: 37%; inhibition [5]: 9%
CN(c1ccccc1C(=O)NO)S(=O)(=O)c1ccc(Oc2ccncc2)cc1 | 153 nM | – | 38 nM | – | inhibition [1]: 48%; inhibition [5]: 22%
COc1ccc(S(=O)(=O)N(Cc2cccnc2)c2c(C(=O)NO)cc(C)cc2-c2ccccc2)cc1 | 7 nM | 133 nM | 3 nM | 103 nM | –

More lines, main results first:

IC50 [2] | IC50 [7] | Structure (SMILES) | IC50 [8] | IC50 [9] | further results
1 nM | – | COc1ccc(S(=O)(=O)N(Cc2cccnc2)c2c(C)cc(-c3cccc(C(F)(F)F)c3)cc2C(=O)NO)cc1 | – | – | –
7 nM | – | Cc1cccc(C(=O)NO)c1N(C)S(=O)(=O)c1ccc(Oc2ccncc2)cc1 | – | – | inhibition at 1 µM [3]: 83%; inhibition in vivo at 50 mg/kg [4]: 35%; inhibition [5]: 32%
4 nM | – | Cc1cc(C)c(N(Cc2ccccc2)S(=O)(=O)c2ccc(Oc3ccccc3)cc2)c(C(=O)NO)c1 | 6 nM | 376 nM | inhibition [5]: 37%
– | 231 nM | COc1ccc(S(=O)(=O)N(Cc2cccnc2)c2c(C)cccc2C(=O)NO)cc1 | – | – | –
952 nM | 23 nM | Cc1cc(Br)cc(C(=O)NO)c1N(C)S(=O)(=O)c1ccc(-c2ccc(OCc3nccs3)cc2)cc1 | 661 nM | – | inhibition [6]: 45%
8 nM | – | COc1ccc(S(=O)(=O)N(Cc2cccnc2)c2c(C(=O)NO)cc(C)cc2-c2ccco2)cc1 | 1 nM | 18 nM | –
3450 nM | 285 nM | Cc1cc(Br)cc(C(=O)NO)c1N(Cc1ccccc1)S(=O)(=O)c1ccc(OCc2ccccc2)cc1 | – | – | inhibition [6]: 18%
– | 43 nM | COc1ccc(S(=O)(=O)N(Cc2cccnc2)c2c(C)cc(Br)cc2C(=O)NO)cc1 | – | 124 nM | –
2 nM | 633 nM | COc1ccc(S(=O)(=O)N(Cc2cccnc2)c2c(C)cc(N(C)C)cc2C(=O)NO)cc1 | 39 nM | 74 nM | –
– | 70 nM | COc1ccc(S(=O)(=O)N(Cc2cccnc2)c2c(C)cc(C)cc2C(=O)NO)cc1 | – | – | –
